Drawing on PubChem BioAssay AID248 (DTP/NCI, 2004), this text covers T/C for 17 compounds.

“And” between values parts separate entries of the source, which are not always exact repeats. Equal values may be shown once. Toxic doses and inconclusive results are not listed.

For this experiment, the system named is L1210 leukemia ip in BDF1 mice, survival T/C. The experiment can be described thus: NCI In Vivo Anticancer Drug Screen. Data for tumor model L1210 Leukemia (intraperitoneal) in B6D2F1 (BDF1) mice. The note with it: endpoint: mean survival time, higher = longer survival. A digest of the protocol:
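Antitumor effect is assessed in tumor-bearing animals. Survival in the compound arm is compared with a vehicle-dosed control arm and expressed as their quotient.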

[1] abbreviates: dose: 100.0 mg/kg/injection, schedule: Q01DX009 (ip), vehicle: Klucel (hydroxypropylcellulose) (HPC).
The mark [2] stands for this setting: dose: 100.0 mg/kg/injection, schedule: Q04DX003 (ip), vehicle: Klucel (hydroxypropylcellulose) (HPC).
The mark [3] stands for this setting: dose: 200.0 mg/kg/injection, schedule: Q01DX009 (ip), vehicle: Klucel (hydroxypropylcellulose) (HPC).
[4] abbreviates: dose: 200.0 mg/kg/injection, schedule: Q04DX003 (ip), vehicle: Klucel (hydroxypropylcellulose) (HPC).
The mark [5] stands for this setting: dose: 400.0 mg/kg/injection, schedule: Q01DX009 (ip), vehicle: Klucel (hydroxypropylcellulose) (HPC).
[6] abbreviates: dose: 400.0 mg/kg/injection, schedule: Q04DX003 (ip), vehicle: Klucel (hydroxypropylcellulose) (HPC).
[7] abbreviates: dose: 25.0 mg/kg/injection, schedule: Q01DX009 (ip), vehicle: saline.
Where [8] appears, read: dose: 50.0 mg/kg/injection, schedule: Q01DX009 (ip), vehicle: saline.
Where [9] appears, read: dose: 100.0 mg/kg/injection, schedule: Q01DX009 (ip), vehicle: saline with Tween-80.
The mark [10] stands for this setting: dose: 200.0 mg/kg/injection, schedule: Q01DX009 (ip), vehicle: saline with Tween-80.
Setting [11] is: dose: 400.0 mg/kg/injection, schedule: Q01DX009 (ip), vehicle: saline with Tween-80.
The mark [12] stands for this setting: dose: 100.0 mg/kg/injection, schedule: Q01DX001 (ip), vehicle: carboxymethylcellulose (CMC).
Where [13] appears, read: dose: 200.0 mg/kg/injection, schedule: Q01DX001 (ip), vehicle: carboxymethylcellulose (CMC).
The mark [14] stands for this setting: dose: 400.0 mg/kg/injection, schedule: Q01DX001 (ip), vehicle: carboxymethylcellulose (CMC).
The mark [15] stands for this setting: dose: 100.0 mg/kg/injection, schedule: Q04DX003 (ip), vehicle: saline with Tween-80.

For `O=C(O)CNc1ccccc1C(=O)O`, the T/C reads like this: under setting [1], 105 % of control; under setting [2], 102 % of control; under setting [3], 98 % of control; under setting [4], 97 % of control; under setting [5], 92 % of control; under setting [6], 96 % of control.

Turning to `CC(C)C(N=Cc1cc(Cl)ccc1O)C(=O)O` (stereo not drawn), the T/C is 105 % of control (dose: 100.0 mg/kg/injection, schedule: Q01DX001 (ip), vehicle: steriod suspending solution); 94 % of control (dose: 200.0 mg/kg/injection, schedule: Q01DX001 (ip), vehicle: steriod suspending solution); 104 % of control (dose: 400.0 mg/kg/injection, schedule: Q01DX001 (ip), vehicle: steriod suspending solution).

Turning to `CC(C)C(O)c1cnc(OCc2ccccc2)nc1OCc1ccccc1` (stereo not drawn), the T/C is, setting by setting: under setting [1], 96 % of control; (dose: 100.0 mg/kg/injection, schedule: Q04DX003 (ip), vehicle: other) 98 % of control; under setting [3], 101 % of control; (dose: 200.0 mg/kg/injection, schedule: Q04DX003 (ip), vehicle: other) 103 % of control; under setting [5], 101 % of control; (dose: 400.0 mg/kg/injection, schedule: Q04DX003 (ip), vehicle: other) 103 % of control.

Consider `O=C1C(CO)=C[C@@H](O)[C@H]2O[C@@H]12`, for which the T/C (dose: 3.0 mg/kg/injection, schedule: Q01DX009 (ip), vehicle: saline) is 93 % of control; the T/C (dose: 6.0 mg/kg/injection, schedule: Q01DX009 (ip), vehicle: saline) is 93 % of control; the T/C (dose: 12.0 mg/kg/injection, schedule: Q01DX009 (ip), vehicle: saline) was 95 % of control; the T/C (dose: 25.0 mg/kg/injection, schedule: Q01DX001 (ip), vehicle: saline) is 98 % of control; the T/C under setting [7] was 98 % of control; the T/C (dose: 50.0 mg/kg/injection, schedule: Q01DX001 (ip), vehicle: saline) is 121 % of control. In addition, the T/C is, setting by setting: under setting [8], 121 % of control; (dose: 75.0 mg/kg/injection, schedule: Q01DX009 (ip), vehicle: saline) 102 % of control; (dose: 100.0 mg/kg/injection, schedule: Q01DX001 (ip), vehicle: saline) 103 % of control and 123 % of control; (dose: 150.0 mg/kg/injection, schedule: Q01DX009 (ip), vehicle: saline) 109 % of control; (dose: 200.0 mg/kg/injection, schedule: Q01DX001 (ip), vehicle: saline) 106 % of control; (dose: 400.0 mg/kg/injection, schedule: Q01DX001 (ip), vehicle: saline) 111 % of control.

Consider `NC(=S)N/N=C/c1cccn1Cc1cc2c(cc1[N+](=O)[O-])OCO2`, for which the T/C runs as follows: (dose: 25.0 mg/kg/injection, schedule: Q04DX002 (ip), vehicle: Klucel (hydroxypropylcellulose) (HPC)) 100 % of control; (dose: 50.0 mg/kg/injection, schedule: Q04DX002 (ip), vehicle: Klucel (hydroxypropylcellulose) (HPC)) 96 % of control; (dose: 100.0 mg/kg/injection, schedule: Q04DX002 (ip), vehicle: Klucel (hydroxypropylcellulose) (HPC)) 104 % of control.

With `CC1=C(C)Cc2c(-c3ccccc3)oc(-c3ccccc3)c2C1`, the T/C is 94 % of control (dose: 100.0 mg/kg/injection, schedule: Q01DX001 (ip), vehicle: saline with Tween-80); 90 % of control (dose: 200.0 mg/kg/injection, schedule: Q01DX001 (ip), vehicle: saline with Tween-80); 90 % of control (dose: 400.0 mg/kg/injection, schedule: Q01DX001 (ip), vehicle: saline with Tween-80).

In the case of `ICc1ccnc2ccccc12`, the T/C is, setting by setting: (dose: 100.0 mg/kg/injection, schedule: Q01DX001 (ip), vehicle: other) 100 % of control; (dose: 200.0 mg/kg/injection, schedule: Q01DX001 (ip), vehicle: other) 103 % of control; (dose: 400.0 mg/kg/injection, schedule: Q01DX001 (ip), vehicle: other) 100 % of control.

Regarding `CCCCC(CC)CC1CCCCC1O` (stereo not drawn), the T/C reads like this: under setting [1], 95 % of control; under setting [2], 97 % of control; under setting [3], 93 % of control; under setting [4], 96 % of control; under setting [6], 96 % of control.

For the compound `Brc1ccc(N(Cc2ccccc2)Cc2ccccc2)cc1`, the T/C under setting [9] is 100 % of control, the T/C under setting [10] was 86 % of control and the T/C under setting [11] was 89 % of control.

`O=C(NCc1cnccn1)c1ccc(Cl)c(Cl)c1`: the T/C under setting [9] was 98 % of control, the T/C under setting [10] is 98 % of control and the T/C under setting [11] was 106 % of control.

On to `Cc1ccc(CN(C)C)c(C(O)(c2ccccc2)c2ccccc2)c1`, for which the T/C runs as follows: (dose: 50.0 mg/kg/injection, schedule: Q01DX001 (ip), vehicle: carboxymethylcellulose (CMC)) 96 % of control; under setting [12], 107 % of control; under setting [13], 100 % of control; under setting [14], 96 % of control.

Consider `O=C1c2ccccc2-c2cc(S)ccc21`, for which the T/C was 109 % of control under setting [12], 104 % of control under setting [13] and 101 % of control under setting [14].

Consider `C[Si](C)(C)CCc1ccccc1`, for which the T/C is, setting by setting: under setting [15], 98 % of control; (dose: 200.0 mg/kg/injection, schedule: Q04DX003 (ip), vehicle: saline with Tween-80) 95 % of control; (dose: 400.0 mg/kg/injection, schedule: Q04DX003 (ip), vehicle: saline with Tween-80) 93 % of control.

Take `CC1(C)C[N+](C)(Cc2ccccc2)C1`: the T/C under setting [15] is 101 % of control.

For `CCCCCCCCCCC(=O)OCC1OC2C(Oc3nc(=N)ccn32)C1OC(=O)CCCCCCCCCC` (stereo not drawn), the T/C runs as follows: (dose: 25.0 mg/kg/injection, schedule: Q01DX009 (ip), vehicle: water) 166 % of control; (dose: 50.0 mg/kg/injection, schedule: Q01DX009 (ip), vehicle: water) 210 % of control.

Regarding `O=[N+]([O-])c1ccc2c(c1)P(=O)(O)c1cc([N+](=O)[O-])ccc1-2`, the T/C is, setting by setting: (dose: 75.0 mg/kg/injection, schedule: Q01DX001 (ip), vehicle: saline) 96 % of control; (dose: 150.0 mg/kg/injection, schedule: Q01DX001 (ip), vehicle: saline) 95 % of control; (dose: 300.0 mg/kg/injection, schedule: Q01DX001 (ip), vehicle: saline) 98 % of control.

For the compound `COc1cc(C(=O)OCCCN2CCOCC2)cc(OC)c1OC`, the T/C was 107 % of control under setting [7]; 106 % of control (dose: 25.0 mg/kg/injection, schedule: Q04DX003 (ip), vehicle: saline); 92 % of control under setting [8]; 101 % of control (dose: 50.0 mg/kg/injection, schedule: Q04DX003 (ip), vehicle: saline); 92 % of control (dose: 100.0 mg/kg/injection, schedule: Q01DX009 (ip), vehicle: saline); 98 % of control (dose: 100.0 mg/kg/injection, schedule: Q04DX003 (ip), vehicle: saline). The T/C is 105 % of control (dose: 200.0 mg/kg/injection, schedule: Q01DX009 (ip), vehicle: saline); 98 % of control (dose: 200.0 mg/kg/injection, schedule: Q04DX003 (ip), vehicle: saline); 100 % of control (dose: 400.0 mg/kg/injection, schedule: Q01DX009 (ip), vehicle: saline); 95 % of control (dose: 400.0 mg/kg/injection, schedule: Q04DX003 (ip), vehicle: saline).
